{
  "source": "paper PMC7316778",
  "about": "(Nature Communications, 2020)",
  "key": {"CDK9/cyclin K": {"biological_target": "CDK9/cyclin K (Homo sapiens, UniProt P50750)", "sequence (P50750 whole entry)": "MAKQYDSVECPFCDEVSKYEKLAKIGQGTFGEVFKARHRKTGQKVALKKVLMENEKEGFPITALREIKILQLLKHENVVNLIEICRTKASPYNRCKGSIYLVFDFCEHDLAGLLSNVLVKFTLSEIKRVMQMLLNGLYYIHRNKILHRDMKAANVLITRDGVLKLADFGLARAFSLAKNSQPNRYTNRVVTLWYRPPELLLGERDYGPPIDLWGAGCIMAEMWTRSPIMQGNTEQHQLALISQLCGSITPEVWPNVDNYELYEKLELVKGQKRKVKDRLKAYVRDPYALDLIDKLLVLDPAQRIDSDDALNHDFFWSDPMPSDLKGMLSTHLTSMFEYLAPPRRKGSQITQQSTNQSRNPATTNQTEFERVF", "sequence (O75909 whole entry partner)": "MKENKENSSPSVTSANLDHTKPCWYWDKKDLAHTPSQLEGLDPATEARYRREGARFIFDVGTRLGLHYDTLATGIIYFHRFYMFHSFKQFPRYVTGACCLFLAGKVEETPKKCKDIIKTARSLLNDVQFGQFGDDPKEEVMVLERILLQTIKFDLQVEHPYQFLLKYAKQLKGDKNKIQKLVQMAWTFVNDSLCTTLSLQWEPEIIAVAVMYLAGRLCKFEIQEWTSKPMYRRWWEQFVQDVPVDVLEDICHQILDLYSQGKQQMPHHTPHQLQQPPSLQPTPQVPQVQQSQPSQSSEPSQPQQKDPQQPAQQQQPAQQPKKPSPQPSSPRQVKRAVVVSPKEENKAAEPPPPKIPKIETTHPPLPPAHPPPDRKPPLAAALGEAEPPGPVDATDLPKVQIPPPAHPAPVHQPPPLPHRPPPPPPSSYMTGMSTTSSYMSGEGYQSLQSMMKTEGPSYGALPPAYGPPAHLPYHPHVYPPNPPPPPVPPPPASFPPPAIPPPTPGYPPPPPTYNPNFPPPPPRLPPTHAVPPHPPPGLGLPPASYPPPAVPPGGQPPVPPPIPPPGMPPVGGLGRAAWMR", "experiment": "SelectScreen kinase assay", "settings": "for Inhibition at 1 µM (%): CDK9/cyclin K, LanthaScreen Binding"}, "CSNK2A1 (CK2 alpha 1)": {"biological_target": "CSNK2A1 (CK2 alpha 1) (Homo sapiens, UniProt P68400)", "sequence (P68400 whole entry)": "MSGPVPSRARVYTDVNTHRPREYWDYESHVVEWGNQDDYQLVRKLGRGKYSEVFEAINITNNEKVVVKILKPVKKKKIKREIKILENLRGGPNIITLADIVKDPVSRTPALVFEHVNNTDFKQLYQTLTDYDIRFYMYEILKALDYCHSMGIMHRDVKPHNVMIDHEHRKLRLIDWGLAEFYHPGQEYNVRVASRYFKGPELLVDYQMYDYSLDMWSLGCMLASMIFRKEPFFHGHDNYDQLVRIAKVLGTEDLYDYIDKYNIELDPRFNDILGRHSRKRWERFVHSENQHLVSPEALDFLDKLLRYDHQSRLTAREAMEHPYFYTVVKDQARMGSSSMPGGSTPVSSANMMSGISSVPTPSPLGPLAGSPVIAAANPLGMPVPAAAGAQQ", "experiment": "SelectScreen kinase assay"}, "DAPK2": {"biological_target": "DAPK2 (Homo sapiens, UniProt Q9UIK4)", "sequence (Q9UIK4 whole entry)": "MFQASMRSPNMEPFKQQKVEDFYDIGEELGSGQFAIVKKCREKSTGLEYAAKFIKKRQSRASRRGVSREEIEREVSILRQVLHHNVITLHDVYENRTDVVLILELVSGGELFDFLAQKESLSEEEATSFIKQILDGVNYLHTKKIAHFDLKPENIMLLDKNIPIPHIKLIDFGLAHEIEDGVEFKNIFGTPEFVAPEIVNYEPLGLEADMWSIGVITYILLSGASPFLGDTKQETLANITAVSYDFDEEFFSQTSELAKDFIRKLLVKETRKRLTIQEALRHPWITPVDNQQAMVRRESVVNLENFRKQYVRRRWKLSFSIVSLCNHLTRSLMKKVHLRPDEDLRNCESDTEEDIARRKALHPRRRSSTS", "experiment": "SelectScreen kinase assay", "settings": "for Inhibition at 1 µM (%): DAPK2, LanthaScreen Binding"}, "DYRK1B": {"biological_target": "DYRK1B (Homo sapiens, UniProt Q9Y463)", "experiment": "SelectScreen kinase assay", "settings": "1 h, 1 μM WEL028, 1 h preincubation"}, "EIF2AK2 (PKR)": {"biological_target": "EIF2AK2 (PKR) (Homo sapiens, UniProt P19525)", "sequence (P19525 whole entry)": "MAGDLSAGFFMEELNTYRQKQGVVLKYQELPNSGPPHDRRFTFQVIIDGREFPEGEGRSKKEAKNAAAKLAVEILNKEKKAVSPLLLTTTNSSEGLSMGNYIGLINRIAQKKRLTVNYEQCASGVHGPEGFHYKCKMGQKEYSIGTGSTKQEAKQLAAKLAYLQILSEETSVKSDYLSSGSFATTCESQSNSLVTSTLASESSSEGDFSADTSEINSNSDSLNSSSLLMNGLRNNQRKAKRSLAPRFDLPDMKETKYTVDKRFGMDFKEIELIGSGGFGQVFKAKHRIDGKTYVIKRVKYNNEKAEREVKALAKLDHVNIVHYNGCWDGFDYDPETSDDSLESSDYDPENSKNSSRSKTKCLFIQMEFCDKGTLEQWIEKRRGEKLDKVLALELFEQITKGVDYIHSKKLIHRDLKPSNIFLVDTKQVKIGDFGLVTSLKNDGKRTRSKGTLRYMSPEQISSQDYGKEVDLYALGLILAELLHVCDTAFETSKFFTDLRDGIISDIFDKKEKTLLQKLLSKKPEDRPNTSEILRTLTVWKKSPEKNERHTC", "experiment": "SelectScreen kinase assay"}, "EPHA4": {"biological_target": "EPHA4 (Homo sapiens, UniProt P54764)", "sequence (P54764 20-986)": "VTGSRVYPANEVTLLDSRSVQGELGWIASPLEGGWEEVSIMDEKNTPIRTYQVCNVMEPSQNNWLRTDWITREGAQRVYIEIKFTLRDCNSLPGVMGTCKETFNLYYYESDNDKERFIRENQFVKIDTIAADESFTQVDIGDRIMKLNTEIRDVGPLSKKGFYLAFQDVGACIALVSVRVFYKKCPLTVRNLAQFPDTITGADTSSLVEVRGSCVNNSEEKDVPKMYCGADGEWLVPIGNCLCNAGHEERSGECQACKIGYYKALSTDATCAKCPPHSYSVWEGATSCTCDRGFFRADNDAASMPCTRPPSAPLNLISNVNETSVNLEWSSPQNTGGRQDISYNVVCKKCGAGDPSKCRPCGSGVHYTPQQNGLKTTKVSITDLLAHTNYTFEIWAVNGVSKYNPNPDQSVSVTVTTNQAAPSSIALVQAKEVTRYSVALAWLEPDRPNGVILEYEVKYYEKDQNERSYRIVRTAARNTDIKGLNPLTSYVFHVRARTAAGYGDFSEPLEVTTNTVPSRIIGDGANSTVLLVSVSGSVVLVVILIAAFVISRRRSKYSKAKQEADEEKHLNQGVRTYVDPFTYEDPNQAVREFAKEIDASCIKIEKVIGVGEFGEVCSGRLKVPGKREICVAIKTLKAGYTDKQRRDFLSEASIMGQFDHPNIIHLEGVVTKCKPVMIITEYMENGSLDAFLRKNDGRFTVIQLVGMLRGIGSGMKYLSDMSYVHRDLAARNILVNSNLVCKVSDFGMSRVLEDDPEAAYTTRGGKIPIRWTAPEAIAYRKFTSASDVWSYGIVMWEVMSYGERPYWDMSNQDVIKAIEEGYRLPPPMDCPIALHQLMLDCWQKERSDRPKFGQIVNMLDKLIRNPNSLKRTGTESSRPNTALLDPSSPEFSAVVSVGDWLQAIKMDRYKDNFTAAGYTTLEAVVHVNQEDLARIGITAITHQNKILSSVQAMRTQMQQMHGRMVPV", "experiment": "SelectScreen kinase assay"}, "[1]": {"biological_target": "T1, MAP3K7/MAP3K7IP1 (TAK1-TAB1) (Homo sapiens, UniProt O43318)", "T1 sequence (O43318 1-303 limits assumed)": "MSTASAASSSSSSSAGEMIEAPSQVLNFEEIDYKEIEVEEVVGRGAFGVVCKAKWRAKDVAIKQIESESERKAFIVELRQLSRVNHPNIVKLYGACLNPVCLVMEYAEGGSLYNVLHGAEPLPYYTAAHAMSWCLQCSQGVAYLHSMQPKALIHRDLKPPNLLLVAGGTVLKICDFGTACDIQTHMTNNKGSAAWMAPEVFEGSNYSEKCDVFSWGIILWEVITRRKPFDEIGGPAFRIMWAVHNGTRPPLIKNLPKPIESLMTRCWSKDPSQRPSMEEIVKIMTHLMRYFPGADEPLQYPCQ", "T1 sequence (Q15750 437-504 partner limits assumed)": "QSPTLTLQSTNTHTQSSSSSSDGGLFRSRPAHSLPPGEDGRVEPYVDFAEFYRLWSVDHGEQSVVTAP", "experiment": "SelectScreen kinase assay"}, "NTRK1 (TRKA)": {"biological_target": "NTRK1 (TRKA) (Homo sapiens, UniProt P04629)", "sequence (P04629 33-796)": "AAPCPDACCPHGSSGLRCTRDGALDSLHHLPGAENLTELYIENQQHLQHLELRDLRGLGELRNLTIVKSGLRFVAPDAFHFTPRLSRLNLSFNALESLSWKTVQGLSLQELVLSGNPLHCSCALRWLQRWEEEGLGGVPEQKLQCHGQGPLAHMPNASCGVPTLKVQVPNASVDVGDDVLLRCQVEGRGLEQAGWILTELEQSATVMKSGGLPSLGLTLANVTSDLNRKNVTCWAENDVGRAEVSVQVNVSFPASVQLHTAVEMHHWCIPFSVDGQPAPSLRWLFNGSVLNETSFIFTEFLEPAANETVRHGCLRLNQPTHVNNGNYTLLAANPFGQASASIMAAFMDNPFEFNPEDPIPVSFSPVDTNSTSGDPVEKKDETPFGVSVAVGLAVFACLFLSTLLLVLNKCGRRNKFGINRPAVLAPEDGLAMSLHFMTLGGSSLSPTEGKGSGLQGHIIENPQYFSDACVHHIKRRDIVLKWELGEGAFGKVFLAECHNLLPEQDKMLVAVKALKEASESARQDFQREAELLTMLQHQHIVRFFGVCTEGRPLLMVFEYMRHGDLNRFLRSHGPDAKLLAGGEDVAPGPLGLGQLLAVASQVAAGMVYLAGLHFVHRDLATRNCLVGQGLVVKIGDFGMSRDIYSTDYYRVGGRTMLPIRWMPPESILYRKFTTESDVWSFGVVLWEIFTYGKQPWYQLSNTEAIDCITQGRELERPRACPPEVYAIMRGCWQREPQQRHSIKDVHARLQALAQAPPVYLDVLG", "experiment": "SelectScreen kinase assay"}, "PHKG2": {"biological_target": "PHKG2 (Homo sapiens, UniProt P15735)", "experiment": "SelectScreen kinase assay"}, "PKMYT1": {"biological_target": "T2, PKMYT1 (Homo sapiens, UniProt Q99640)", "T2 sequence (Q99640 1-499)": "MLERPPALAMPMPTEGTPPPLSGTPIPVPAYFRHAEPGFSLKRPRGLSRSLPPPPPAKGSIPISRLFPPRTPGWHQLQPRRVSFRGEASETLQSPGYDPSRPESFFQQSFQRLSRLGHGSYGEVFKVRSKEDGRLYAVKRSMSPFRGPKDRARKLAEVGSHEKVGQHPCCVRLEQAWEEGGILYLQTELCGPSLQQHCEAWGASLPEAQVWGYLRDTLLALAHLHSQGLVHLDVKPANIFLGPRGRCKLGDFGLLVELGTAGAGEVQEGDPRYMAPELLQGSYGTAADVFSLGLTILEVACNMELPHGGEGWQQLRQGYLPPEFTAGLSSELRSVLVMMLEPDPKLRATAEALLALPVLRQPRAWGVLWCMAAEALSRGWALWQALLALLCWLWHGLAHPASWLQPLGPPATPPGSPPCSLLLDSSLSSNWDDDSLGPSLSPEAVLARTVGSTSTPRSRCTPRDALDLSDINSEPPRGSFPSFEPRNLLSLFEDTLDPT", "experiment": "SelectScreen kinase assay"}, "PLK2": {"biological_target": "PLK2 (Homo sapiens, UniProt Q9NYY3)", "sequence (Q9NYY3 whole entry)": "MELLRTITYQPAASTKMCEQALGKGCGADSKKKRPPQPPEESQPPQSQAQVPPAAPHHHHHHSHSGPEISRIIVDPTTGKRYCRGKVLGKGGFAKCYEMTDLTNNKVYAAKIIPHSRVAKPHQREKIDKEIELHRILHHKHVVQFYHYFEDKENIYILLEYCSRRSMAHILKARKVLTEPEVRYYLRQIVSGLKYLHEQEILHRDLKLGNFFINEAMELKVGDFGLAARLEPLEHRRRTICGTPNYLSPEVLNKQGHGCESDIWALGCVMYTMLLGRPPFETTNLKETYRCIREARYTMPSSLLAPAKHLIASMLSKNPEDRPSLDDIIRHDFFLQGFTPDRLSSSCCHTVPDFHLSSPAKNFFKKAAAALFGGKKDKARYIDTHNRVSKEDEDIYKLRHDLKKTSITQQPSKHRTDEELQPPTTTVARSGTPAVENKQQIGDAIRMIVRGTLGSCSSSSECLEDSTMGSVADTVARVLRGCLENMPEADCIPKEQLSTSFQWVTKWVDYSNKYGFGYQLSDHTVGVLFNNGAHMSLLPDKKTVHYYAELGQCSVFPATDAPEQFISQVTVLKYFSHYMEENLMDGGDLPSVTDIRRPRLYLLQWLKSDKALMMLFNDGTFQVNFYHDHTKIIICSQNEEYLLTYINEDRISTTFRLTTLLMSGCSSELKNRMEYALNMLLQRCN", "experiment": "SelectScreen kinase assay"}, "PRKCN (PKD3)": {"biological_target": "PRKCN (PKD3) (Homo sapiens, UniProt O94806)", "experiment": "SelectScreen kinase assay"}, "RIPK3": {"biological_target": "RIPK3 (Homo sapiens, UniProt Q9Y572)", "experiment": "SelectScreen kinase assay"}, "TGFBR1 (ALK5)": {"biological_target": "T3, TGFBR1 (ALK5) (Homo sapiens, UniProt P36897)", "T3 sequence (P36897 34-503)": "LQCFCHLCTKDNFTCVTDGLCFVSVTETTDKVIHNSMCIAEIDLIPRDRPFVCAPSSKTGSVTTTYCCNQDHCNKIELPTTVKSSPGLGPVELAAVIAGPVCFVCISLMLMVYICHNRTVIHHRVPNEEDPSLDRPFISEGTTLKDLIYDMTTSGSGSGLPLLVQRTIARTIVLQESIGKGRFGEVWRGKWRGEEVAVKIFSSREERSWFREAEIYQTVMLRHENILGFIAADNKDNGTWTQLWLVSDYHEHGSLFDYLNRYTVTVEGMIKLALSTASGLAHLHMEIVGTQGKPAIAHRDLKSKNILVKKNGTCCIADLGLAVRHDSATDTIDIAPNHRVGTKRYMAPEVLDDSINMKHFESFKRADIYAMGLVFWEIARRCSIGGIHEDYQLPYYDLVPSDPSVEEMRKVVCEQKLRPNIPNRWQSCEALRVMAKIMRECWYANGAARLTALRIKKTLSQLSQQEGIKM", "experiment": "SelectScreen kinase assay", "settings": "for Inhibition at 1 µM (%): LanthaScreen Binding"}, "FES^S700C": {"biological_target": "FES^S700C (Homo sapiens, UniProt P07332, S700C)", "experiment": "In vitro TR-FRET kinase assay", "format": "biochemical", "set-up": "human FES cDNA encoding residues 448–822 or human FER cDNA encoding residues 448–820 was amplified by PCR; made in house; host or cells: E. coli BL21(DE3), co-expressing YopH phosphatase", "settings": "IC50 on FES^WT divided by IC50 on FES^S700C"}, "[2]": {"settings": "1 h, 1 μM WEL028, 1 h preincubation"}},
  "note": "Several values for one entry are separate records, joined by “and”; a condition that tells them apart may be missing. Equal entries are not always repeated. Where two headings read alike, the source gives them in different places.",
  "data": [
    {"smiles": "C#CCOc1ccc(Nc2ncc(Cl)c(Nc3ccccc3NC(=O)C=C)n2)c(OC)c1", "note": "[Compound 6]", "values": [
      {"measurement": "inhibition at 1 µM", "setting": "CDK9/cyclin K; [2]", "value": 5, "unit": "%"},
      {"measurement": "Inhibition at 1 µM (%)", "setting": "CDK9/cyclin K", "value": 2, "unit": "%"},
      {"measurement": "Inhibition at 1 µM (%)", "setting": "CDK9/cyclin K; listed as WEL028, 1 µM", "value": 7, "unit": "%"},
      {"measurement": "inhibition at 1 µM", "setting": "CSNK2A1 (CK2 alpha 1); [2]", "value": 4, "unit": "%"},
      {"measurement": "Inhibition at 1 µM (%)", "setting": "CSNK2A1 (CK2 alpha 1); CSNK2A1 (CK2 alpha 1), 1 µM, ZLYTE, ATP Km app, listed as WEL028, 1 µM", "value": "9% and 0%"},
      {"measurement": "inhibition at 1 µM", "setting": "DAPK2; [2]", "value": 10, "unit": "%"},
      {"measurement": "Inhibition at 1 µM (%)", "setting": "DAPK2", "value": 14, "unit": "%"},
      {"measurement": "Inhibition at 1 µM (%)", "setting": "DAPK2; listed as WEL028, 1 µM", "value": 6, "unit": "%"},
      {"measurement": "inhibition at 1 µM", "setting": "DYRK1B", "value": 0, "unit": "%"},
      {"measurement": "Inhibition (%)", "setting": "EIF2AK2 (PKR); 1 μM WEL028, 1 h preincubation", "value": 4, "unit": "%"},
      {"measurement": "Inhibition at 1 µM (%)", "setting": "EIF2AK2 (PKR); EIF2AK2 (PKR), 1 µM, LanthaScreen Binding, listed as WEL028, 1 µM", "value": "6% and 1%"},
      {"measurement": "inhibition at 1 µM", "setting": "EPHA4; [2]", "value": 5, "unit": "%"},
      {"measurement": "Inhibition at 1 µM (%)", "setting": "EPHA4; EPHA4, 1 µM, ZLYTE, ATP Km app, listed as WEL028, 1 µM", "value": 4, "unit": "%"},
      {"measurement": "inhibition at 1 µM", "setting": "EPHA4; read-out: Inhibition at 1 µM (%), EPHA4, 1 µM, ZLYTE, ATP Km app", "value": 5, "unit": "%"},
      {"measurement": "inhibition at 1 µM", "setting": "[1]; [2]", "value": 13, "unit": "%"},
      {"measurement": "Inhibition at 1 µM (%)", "setting": "[1]; MAP3K7/MAP3K7IP1 (TAK1-TAB1), 1 µM, LanthaScreen Binding, listed as WEL028, 1 µM", "value": 15, "unit": "%"},
      {"measurement": "inhibition at 1 µM", "setting": "[1]; read-out: Inhibition at 1 µM (%), MAP3K7/MAP3K7IP1 (TAK1-TAB1), 1 µM, LanthaScreen Binding", "value": 11, "unit": "%"},
      {"measurement": "inhibition at 1 µM", "setting": "NTRK1 (TRKA); [2]", "value": 17, "unit": "%"},
      {"measurement": "Inhibition at 1 µM (%)", "setting": "NTRK1 (TRKA); NTRK1 (TRKA), 1 µM, ZLYTE, ATP Km app, listed as WEL028, 1 µM", "value": 16, "unit": "%"},
      {"measurement": "inhibition at 1 µM", "setting": "NTRK1 (TRKA); read-out: Inhibition at 1 µM (%), NTRK1 (TRKA), 1 µM, ZLYTE, ATP Km app", "value": 17, "unit": "%"},
      {"measurement": "inhibition at 1 µM", "setting": "PHKG2; [2]", "value": 0, "unit": "%"},
      {"measurement": "Inhibition at 1 µM (%)", "setting": "PHKG2; PHKG2, 1 µM, ZLYTE, ATP Km app", "value": 11, "unit": "%"},
      {"measurement": "Inhibition (%)", "setting": "PKMYT1; 1 μM WEL028, 1 h preincubation", "value": 13, "unit": "%"},
      {"measurement": "Inhibition at 1 µM (%)", "setting": "PKMYT1; PKMYT1, 1 µM, LanthaScreen Binding, listed as WEL028, 1 µM", "value": 9, "unit": "%"},
      {"measurement": "inhibition at 1 µM", "setting": "PKMYT1; read-out: Inhibition at 1 µM (%), PKMYT1, 1 µM, LanthaScreen Binding", "value": 17, "unit": "%"},
      {"measurement": "Inhibition (%)", "setting": "PLK2; 1 μM WEL028, 1 h preincubation", "value": 12, "unit": "%"},
      {"measurement": "Inhibition at 1 µM (%)", "setting": "PLK2; PLK2, 1 µM, ZLYTE, ATP Km app, listed as WEL028, 1 µM", "value": 15, "unit": "%"},
      {"measurement": "inhibition at 1 µM", "setting": "PLK2; read-out: Inhibition at 1 µM (%), PLK2, 1 µM, ZLYTE, ATP Km app", "value": 8, "unit": "%"},
      {"measurement": "inhibition at 1 µM", "setting": "PRKCN (PKD3); [2]", "value": 31, "unit": "%"},
      {"measurement": "inhibition at 1 µM", "setting": "PRKCN (PKD3); read-out: Inhibition at 1 µM (%), PRKCN (PKD3), 1 µM, ZLYTE, ATP Km app", "value": 32, "unit": "%"},
      {"measurement": "inhibition at 1 µM", "setting": "RIPK3; [2]", "value": 1, "unit": "%"},
      {"measurement": "inhibition at 1 µM", "setting": "RIPK3; read-out: Inhibition at 1 µM (%), 1 µM, LanthaScreen Binding", "value": 2, "unit": "%"},
      {"measurement": "Inhibition at 1 µM (%)", "setting": "TGFBR1 (ALK5)", "value": 3, "unit": "%"},
      {"measurement": "Inhibition at 1 µM (%)", "setting": "TGFBR1 (ALK5); listed as WEL028, 1 µM", "value": 8, "unit": "%"},
      {"measurement": "inhibition at 1 µM", "setting": "TGFBR1 (ALK5); [2]", "value": 6, "unit": "%"},
      {"measurement": "Apparent fold selectivity", "setting": "FES^S700C", "value": 232, "unit": "fold"}
    ]}
  ]
}
